Our source for the EC50 values is US8796256B2 (Janssen Pharmaceutica NV, priority 2010, dated 2014).

In this test the target is T1, ERR1 (also known as ERR-α or ERR-1) (Homo sapiens, UniProt P11474).
T1 sequence (P11474 193-421 limits assumed): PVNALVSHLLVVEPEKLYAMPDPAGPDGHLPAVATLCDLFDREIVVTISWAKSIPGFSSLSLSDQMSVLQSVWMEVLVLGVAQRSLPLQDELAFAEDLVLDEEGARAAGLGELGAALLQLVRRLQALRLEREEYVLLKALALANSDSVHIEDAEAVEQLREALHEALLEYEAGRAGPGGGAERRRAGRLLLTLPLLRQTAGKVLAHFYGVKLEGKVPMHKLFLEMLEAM
Nature of the test: TR-FRET assay (disruption of co-activator peptide binding to ERR1 LBD). It is filed as biochemical. The settings on record: 6 nM 6His-ERR1LBD, 6 nM GST-SRC-2 peptide; average of 3 independent experiments. Put shortly: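 His-tagged ERR1 ligand-binding domain and GST-labelled SRC-2 peptide, each 6 nM, equilibrated at 25° C for 4-18 h in Tris pH 8/Hepes/KCl/DTT/delipidated BSA buffer. Compound-induced loss of co-activator binding read as Eu cryptate→XL665 energy transfer; values from hyperbolic curve fits averaged over 3 independent runs.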
Consider `O=C1S/C(=C\c2ccc3c(cnn3Cc3ccc(C(F)(F)F)cc3C(F)(F)F)c2)C(=O)N1C[C@@H]1COCCN1` [Compound 197, (5Z)-5-({1-[2,4-Bis(trifluoromethyl)benzyl]-1H-indazol-5-yl}methylidene)-3-[(3R)-morpholin-3-ylmethyl]-1,3-thiazolidine-2,4-dione], for which the concentration giving a half-maximal response (EC50) turned out to be 65 nM.
On to `O=C1S/C(=C\c2ccc3c(cnn3Cc3ccc(C(F)(F)F)cc3C(F)(F)F)c2)C(=O)N1[C@@H]1CCNC[C@H]1O` (relative stereo) [Compound 271, (5Z)-5-({1-[2,4-Bis(trifluoromethyl)benzyl]-1H-indazol-5-yl}methylidene)-3-[trans-3-hydroxypiperidin-4-yl]-1,3-thiazolidine-2,4-dione], for which a half-maximal effect (EC50) was put at 38 nM.
In the case of `O=C(O)C(CC1CCNCC1)N1C(=O)S/C(=C\c2ccc3c(cnn3Cc3ccc(Cl)cc3C(F)(F)F)c2)C1=O` (stereo not shown) [Compound 228, 2-[(5Z)-5-({1-[4-Chloro-2-(trifluoromethyl)benzyl]-1H-indazol-5-yl}methylidene)-2,4-dioxo-1,3-thiazolidin-3-yl]-3-piperidin-4-ylpropanoic acid], the midpoint of the response, the EC50, lay at 49 nM.
The result for `O=C1S/C(=C\c2ccc3c(cnn3Cc3ccc(Cl)cc3C(F)(F)F)c2)C(=O)N1C[C@@H]1CCCN2CCCC[C@H]12` [Compound 206, (5Z)-5-({1-[4-Chloro-2-(trifluoromethyl)benzyl]-1H-indazol-5-yl}methylidene)-3-[(1S,9aR)-octahydro-2H-quinolizin-1-ylmethyl]-1,3-thiazolidine-2,4-dione] reads 97 nM; that for `CCNCCN1C(=O)S/C(=C\c2ccc3c(cnn3Cc3ccc(Cl)cc3C(F)(F)F)c2)C1=O` [Compound 47, (5Z)-5-({1-[4-Chloro-2-(trifluoromethyl)benzyl]-1H-indazol-5-yl}methylidene)-3-[2-(ethylamino)ethyl]-1,3-thiazolidine-2,4-dione], 17 nM; that for `COC(=O)[C@H](COC(C)(C)C)N1C(=O)S/C(=C\c2ccc3c(cnn3Cc3ccc(Cl)cc3C(F)(F)F)c2)C1=O` [Compound 210, Methyl (2S)-3-tert-butoxy-2-[(5Z)-5-({1-[4-chloro-2-(trifluoromethyl)benzyl]-1H-indazol-5-yl}methylidene)-2,4-dioxo-1,3-thiazolidin-3-yl]propanoate], 260 nM.
For `O=C(O)[C@H]1CCCN1CCN1C(=O)S/C(=C\c2ccc3c(ccn3Cc3ccc(C(F)(F)F)cc3C(F)(F)F)c2)C1=O` [Compound 248, 1-{2-[(5Z)-5-({1-[2,4-Bis(trifluoromethyl)benzyl]-1H-indol-5-yl}methylidene)-2,4-dioxo-1,3-thiazolidin-3-yl]ethyl}-D-proline] the value was 290 nM.
For `O=C(CN1C(=O)S/C(=C\c2ccc3c(cnn3Cc3ccc(Cl)cc3C(F)(F)F)c2)C1=O)N1CCN[C@@H](CO)C1` [Compound 57, (5Z)-5-({1-[4-Chloro-2-(trifluoromethyl)benzyl]-1H-indazol-5-yl}methylidene)-3-{2-[(3R)-3-(hydroxymethyl)piperazin-1-yl]-2-oxoethyl}-1,3-thiazolidine-2,4-dione] the value was 59 nM; for `O=C1S/C(=C\c2ccc3c(cnn3Cc3ccc(Cl)cc3C(F)(F)F)c2)C(=O)N1CCNS(=O)(=O)c1ccccc1` [Compound 391, N-{2-[(5Z)-5-({1-[4-Chloro-2-(trifluoromethyl)benzyl]-1H-indazol-5-yl}methylidene)-2,4-dioxo-1,3-thiazolidin-3-yl]ethyl}benzenesulfonamide], 215 nM; for `O=C1S/C(=C\c2ccc3c(cnn3Cc3ccc(Cl)cc3C(F)(F)F)c2)C(=O)N1CCN1CCCNCC1` [Compound 104, (5Z)-5-({1-[4-Chloro-2-(trifluoromethyl)benzyl]-1H-indazol-5-yl}methylidene)-3-[2-(1,4-diazepan-1-yl)ethyl]-1,3-thiazolidine-2,4-dione], 112 nM.
Regarding `O=C1S/C(=C\c2ccc3c(cnn3Cc3ccc(Cl)cc3C(F)(F)F)c2)C(=O)N1C1(C(=O)O)CCCC1` [Compound 233, 1-[(5Z)-5-({1-[4-Chloro-2-(trifluoromethyl)benzyl]-1H-indazol-5-yl}methylidene)-2,4-dioxo-1,3-thiazolidin-3-yl]cyclopentanecarboxylic acid], the concentration for a half-maximal effect (EC50) was 57 nM.
For `O=C1S/C(=C\c2ccc3c(cnn3Cc3ccc(Cl)cc3C(F)(F)F)c2)C(=O)N1CCn1ccnc1` [Compound 296, (5Z)-5-({1-[4-Chloro-2-(trifluoromethyl)benzyl]-1H-indazol-5-yl}methylidene)-3-[2-(1H-imidazol-1-yl)ethyl]-1,3-thiazolidine-2,4-dione] the value was 17 nM.
`CCOC(=O)C1CCC(N2C(=O)S/C(=C\c3ccc4c(c3)nnn4Cc3ccc(Cl)cc3C(F)(F)F)C2=O)CC1` (stereo not shown) [Compound 261, Ethyl 4-[(5Z)-5-({1-[4-chloro-2-(trifluoromethyl)benzyl]-1H-benzotriazol-5-yl}methylidene)-2,4-dioxo-1,3-thiazolidin-3-yl]cyclohexanecarboxylate] displayed a half-maximal effective concentration (EC50) of 124 nM.
For `NC(CN1C(=O)S/C(=C\c2ccc3c(cnn3Cc3ccc(Cl)cc3C(F)(F)F)c2)C1=O)C(F)(F)F` (stereo not shown) [Compound 169, (5Z)-3-(2-Amino-3,3,3-trifluoropropyl)-5-({1-[4-chloro-2-(trifluoromethyl)benzyl]-1H-indazol-5-yl}methylidene)-1,3-thiazolidine-2,4-dione] the value was 32 nM.
The result for `CS(=O)(=O)NC(=O)CN1C(=O)S/C(=C\c2ccc3c(cnn3Cc3ccc(C(F)(F)F)cc3C(F)(F)F)c2)C1=O` [Compound 60, 2-[(5Z)-5-({1-[2,4-Bis(trifluoromethyl)-benzyl]-1H-indazol-5-yl}methylidene)-2,4-dioxo-1,3-thiazolidin-3-yl]-N-(methyl-sulfonyl)acetamide] reads 57 nM.
For `O=C1S/C(=C\c2ccc3c(c2)nnn3Cc2ccc(Cl)cc2C(F)(F)F)C(=O)N1Cc1nnn[nH]1` [Compound 265, (5Z)-5-({1-[4-Chloro-2-(trifluoromethyl)benzyl]-1H-benzotriazol-5-yl}methylidene)-3-(1H-tetrazol-5-ylmethyl)-1,3-thiazolidine-2,4-dione] the value was 40 nM; for `COc1nn(Cc2ccc(Cl)cc2C(F)(F)F)c2ccc(/C=C3\SC(=O)N(C4CCNCC4)C3=O)cc12` [Compound 29, (5Z)-5-({1-[4-Chloro-2-(trifluoromethyl)benzyl]-3-methoxy-1H-indazol-5-yl}methylidene)-3-piperidin-4-yl-1,3-thiazolidine-2,4-dione], 95 nM; for `O=C1S/C(=C\c2ccc3c(cnn3Cc3ccc(Cl)cc3C(F)(F)F)c2)C(=O)N1CCN1CCNS1(=O)=O` [Compound 337, (5Z)-5-({1-[4-Chloro-2-(trifluoromethyl)benzyl]-1H-indazol-5-yl}methylidene)-3-[2-(1,1-dioxido-1,2,5-thiadiazolidin-2-yl)ethyl]-1,3-thiazolidine-2,4-dione], 47 nM.
`O=C1S/C(=C\c2ccc3c(cnn3Cc3ccc(C(F)(F)F)cc3C(F)(F)F)c2)C(=O)N1C[C@H]1COCCN1` [Compound 196, (5Z)-5-({1-[2,4-Bis(trifluoromethyl)benzyl]-1H-indazol-5-yl}methylidene)-3-[(3S)-morpholin-3-ylmethyl]-1,3-thiazolidine-2,4-dione] gave an EC50 of 50 nM.
For `CN(C)CCCN1C(=O)S/C(=C\c2ccc3c(ccn3Cc3ccc(C(F)(F)F)cc3C(F)(F)F)c2)C1=O` [Compound 239, (5Z)-5-[(1-{[2,4-Bis(trifluoromethyl)phenyl]methyl}-1H-indol-5-yl)methylidene]-3-[3-(dimethylamino)-propyl]-1,3-thiazolidine-2,4-dione] the value was 100 nM; for `COc1ccc(Cn2nc(OC)c3cc(/C=C4\SC(=O)N(CCN5CCOCC5)C4=O)ccc32)c(C(F)(F)F)c1` [Compound 25, (5Z)-5-({3-Methoxy-1-[4-methoxy-2-(trifluoromethyl)benzyl]-1H-indazol-5-yl}methylidene)-3-(2-morpholin-4-ylethyl)-1,3-thiazolidine-2,4-dione], 16 nM; for `NS(=O)(=O)N1CCC(N2C(=O)S/C(=C\c3ccc4c(cnn4Cc4ccc(Cl)cc4C(F)(F)F)c3)C2=O)CC1` [Compound 34, 4-[(5Z)-5-({1-[4-Chloro-2-(trifluoromethyl)benzyl]-1H-indazol-5-yl}methylidene)-2,4-dioxo-1,3-thiazolidin-3-yl]piperidine-1-sulfonamide], 23 nM.
In the case of `O=C(O)COCCN1C(=O)S/C(=C\c2ccc3c(cnn3Cc3ccc(Cl)cc3C(F)(F)F)c2)C1=O` [Compound 237, {2-[(5Z)-5-({1-[4-Chloro-2-(trifluoromethyl)benzyl]-1H-indazol-5-yl}methylidene)-2,4-dioxo-1,3-thiazolidin-3-yl]ethoxy}acetic acid], the midpoint of the response, the EC50, lay at 98 nM.
In turn, `CN1CC[C@@H](N2C(=O)S/C(=C\c3ccc4c(cnn4Cc4ccc(Cl)cc4C(F)(F)F)c3)C2=O)[C@H](O)C1` (relative stereo) [Compound 275, (5Z)-5-({1-[4-Chloro-2-(trifluoromethyl)-benzyl]-1H-indazol-5-yl}methylidene)-3-[trans-3-hydroxy-1-methylpiperidin-4-yl]-1,3-thiazolidine-2,4-dione] showed an EC50 of 23 nM.
The result for `O=C(O)CN1C(=O)S/C(=C\c2ccc3c(c2)c(Br)nn3Cc2ccc(Cl)cc2C(F)(F)F)C1=O` [Compound 407, [(5Z)-5-({3-Bromo-1-[4-chloro-2-(trifluoromethyl)benzyl]-1H-indazol-5-yl}methylidene)-2,4-dioxo-1,3-thiazolidin-3-yl]acetic acid] reads 7 nM.
